As usually defined, the AUC is the area under the concentration-time curve, a measure of exposure. By Tmax is commonly meant the time from dosing to the highest level.

The values that follow come from paper PMC12908707, “Pharmacodynamic effects and plasma pharmacokinetics of N, N-dimethyltryptamine after intranasal versus subcutaneous administration in male rats” (Psychopharmacology, 2025).

Series [1] relates to rats. On the set-up: method as in Baumann and Rothman [1996]; Elmore et al. [2018]. Conditions: SC, dose-related increases, ref Baumann and Rothman [1996], Elmore et al. [2018]; cited from earlier work.
In series [2] the test system is rats. On the set-up: method as in Lucki et al. ([1984]). The settings on record: intraperitoneal (IP), ref Lucki et al. ([1984]); cited from earlier work.
Series [3] can be described thus: Plasma pharmacokinetics of DMT and DMT N-oxide after IN or SC DMT (LC-QQQ-MS, non-compartmental analysis). The format is in vivo, male Sprague-Dawley rats. Conditions: for AUC / Tmax / Cmax / half-life: male, Sprague-Dawley, rat, plasma DMT; for Cmax / half-life: plasma. The protocol: For the IN DMT experiments, blood samples (300 µL) were withdrawn via IV catheters immediately before (time zero) and at 5, 10, 20, 40, and 80 min after injection. For the SC DMT experiments, blood samples were withdrawn immediately before (time zero) and at 10, 20, 40, 80, and 160 min after injection. Samples were collected into 1 mL tuberculin syringes and transferred to 1.5 mL plastic tubes containing 5 µL of 1000 IU/mL heparin (Thomas Scientific) as an anticoagulant and 5 µL of 250 mM sodium metabisulfite as a preservative. Blood was centrifuged at 1000 g for 10 min at 4 °C. Plasma was decanted into cryovials and stored at − 80 °C until analysis. To maintain volume and osmotic homeostasis, rats received an equal volume of saline solution via the IV catheter after each blood withdrawal.
Samples were extracted using a basic solid phase extraction (SPE) procedure. Spiking solutions (final concentrations 0.1, 1.0 and 10 ng/µL) contained all analytes and were prepared by serial dilution in methanol from stock solutions. Calibration curves contained eight non-zero calibrators from 5 to 1000 ng/mL. Quality controls were assessed at 15, 60, 150, and 800 ng/mL. DMT-D4 (25 µL, 1.0 ng/µL) was utilized as the internal standard. Authentic rat plasma samples were stored at −80 °C prior to analysis.
Drug-free rat plasma was fortified with appropriate spiking solutions and aliquoted (150 µL) for extraction. Authentic rat plasma was assayed at 150 µL. Internal standard was added at a final concentration of 125 ng/mL. Samples were diluted with 1 mL phosphate buffer (0.1 M, pH 6) followed by centrifugation for 5 min at 4200 rpm, then extracted using Chromabond® SPE cartridges (200 mg, 3 mL)(Macherey-Nagel, Allentown, PA, USA). The columns were conditioned using methanol (2 mL), deionized water (2 mL), and phosphate buffer (0.1 M, pH 6, 2 mL). The buffered sample was added to the columns and impurities were removed using deionized water (1 mL), acetic acid (0.1 M, 1 mL), and methanol (1 mL). Analytes were eluted using 3 mL of dichloromethane: isopropanol: ammonia (78:20:2, v: v:v). The organic solvent was evaporated to dryness under nitrogen at 33 °C. Samples were reconstituted in 100 µL of initial mobile phase conditions (90 A:10B).

In series [4] the test system is male Sprague-Dawley rats. Briefly: Behavioral scoring: flat body posture (element of the 5-HT syndrome). Format: in vivo.
The subject of series [5] is male Sprague-Dawley rats. Briefly: Behavioral scoring: motor activity (summed motor scores). Conditions: IN or SC, 1, 3, 10 mg/kg; Dunnett's post hoc test. The format is in vivo.
The subject of series [6] is male Sprague-Dawley rats. Briefly: Core body temperature by SC temperature transponder.
Series [7] has as its system male Sprague-Dawley rats. Briefly: Behavioral scoring: wet dog shakes (proxy for 5-HT2A activation). The format is in vivo. The settings on record: SC, 1 and 3 mg/kg.
The test system of the next series is male and female rats. On the set-up: method as in Tylš et al. [2016]. The settings on record: SC, ref Tylš et al. [2016]; cited from earlier work.
The mark [8] stands for this setting: inhaled or intranasal, 1 mg/kg IN, mean ± SEM, n = 5 rats.
Setting [9] is: inhaled or intranasal, 3 mg/kg IN, mean ± SEM, n = 5 rats.
[10] abbreviates: inhaled or intranasal, 10 mg/kg IN, mean ± SEM, n = 5 rats.
Setting [11] is: 1 mg/kg SC, mean ± SEM, n = 5 rats.
Where [12] appears, read: 3 mg/kg SC, mean ± SEM, n = 5 rats.
[13] abbreviates: 10 mg/kg SC, mean ± SEM, n = 5 rats.

Molecules are shown by their SMILES. Where two headings read alike, the source gives them in different places.

As for `COc1cc(CCN)c(OC)cc1I` [2 C-I, 2-(4-iodo-2,5-dimethoxyphenyl)ethanamine], the wet dog shakes result with rats [1] is recorded as “more than ten episodes per hour”.

Regarding `COc1ccc2[nH]cc(CCN(C)C)c2c1` [5-MeO-DMT, 5-methoxy-N, N-dimethyltryptamine], in the series on rats [2], the 5-HT behavioral syndrome result is reported as “produces the 5-HT behavioral syndrome”.

For `C[N+](C)([O-])CCc1c[nH]c2ccccc12` [DMT N-oxide], the “plasma concentrations of DMT N-oxide by 80 min post-treatment” value in series [3] (after all doses of IN DMT) is “either undetectable or very low”.

Turning to `CN(C)CCc1c[nH]c2ccccc12` [DMT, N,N-dimethyltryptamine], the “flat body posture vs vehicle” value is listed as “increased above vehicle” with male Sprague-Dawley rats [4] (IN, 3 and 10 mg/kg); “increased” in the series on male Sprague-Dawley rats [4] (SC, only at 10 mg/kg). The “predicted AUC” value in series [3] (10 mg/kg IN, ~3.3-times the measured AUC at 3 mg/kg) was 2950 ng·min/mL. For the same compound, the “plasma concentrations of DMT by 80 min post-treatment” value in series [3] (after all doses of IN DMT) is listed as “below the LOD, or nearly so”. Moreover, the AUC in series [3] (setting [8]) was 6.08 ng·h/mL; in series [3] (setting [9]), 14.9 ng·h/mL; in series [3] (setting [10]), 93.8 ng·h/mL; in series [3] (setting [11]) it was 16.4 ng·h/mL; in series [3] (setting [12]), 47.7 ng·h/mL; in series [3] (setting [13]), 158 ng·h/mL. The time of peak concentration (Tmax) in series [3] (setting [8]) is 5 min; in series [3] (setting [9]), 6 min; in series [3] (setting [10]), 7 min; in series [3] (setting [11]) it was 14 min; in series [3] (setting [12]), 22 min; in series [3] (setting [13]), 64 min. Further, the Cmax was 30.1 ± 7.6 ng/mL in series [3] (inhaled or intranasal, 1 mg/kg, 1 mg/kg IN, mean ± SEM, n = 5 rats, read-out: Cmax); 55.6 ± 15.4 ng/mL in series [3] (inhaled or intranasal, 3 mg/kg, 3 mg/kg IN, mean ± SEM, n = 5 rats, read-out: Cmax); 268 ± 50.7 ng/mL in series [3] (inhaled or intranasal, 10 mg/kg, 10 mg/kg IN, mean ± SEM, n = 5 rats, read-out: Cmax); 30.2 to 55.6 ng/mL in series [3] (other: IN (intranasal, infused into the nares), 3 mg/kg, low IN doses (1 and 3 mg/kg), read-out: maximal DMT concentrations (Cmax) after low IN doses); 19.6 ± 2.2 ng/mL in series [3] (sc, 1 mg/kg, 1 mg/kg SC, mean ± SEM, n = 5 rats, read-out: Cmax); 35.8 ± 2.4 ng/mL in series [3] (sc, 3 mg/kg, 3 mg/kg SC, mean ± SEM, n = 5 rats, read-out: Cmax). Also, the Cmax in series [3] (sc, 10 mg/kg, 10 mg/kg SC, mean ± SEM, n = 5 rats, read-out: Cmax) came to 81.6 ± 11.1 ng/mL. Besides, the half-life in series [3] (inhaled or intranasal, 1 mg/kg, 1 mg/kg IN, mean ± SEM, n = 5 rats, read-out: t1/2) was 12.9 ± 2.8 min; in series [3] (inhaled or intranasal, 3 mg/kg, 3 mg/kg IN, mean ± SEM, n = 5 rats, read-out: t1/2), 14.3 ± 1.9 min; in series [3] (inhaled or intranasal, 10 mg/kg, 10 mg/kg IN, mean ± SEM, n = 5 rats, read-out: t1/2) it was 11.9 ± 1.4 min; in series [3] (other: IN (intranasal, infused into the nares), 10 mg/kg, IN route, across 1, 3 and 10 mg/kg, read-out: t1/2 range) it was 11.9 to 14.3 min; in series [3] (sc, 1 mg/kg, 1 mg/kg SC, mean ± SEM, n = 5 rats, read-out: t1/2), 45.5 ± 9.5 min; in series [3] (sc, 3 mg/kg, 3 mg/kg SC, mean ± SEM, n = 5 rats, read-out: t1/2), 91.7 ± 26.4 min. Further, the half-life in series [3] (sc, 10 mg/kg, 10 mg/kg SC, mean ± SEM, n = 5 rats, read-out: t1/2) was 123 ± 36.4 min; in series [3] (sc, 10 mg/kg, SC route, across 1, 3 and 10 mg/kg, read-out: t1/2 range) it was 45.5 to 123 min. Moreover, in the series on male Sprague-Dawley rats [5], the “summed motor scores vs vehicle controls” value was “no significant differences”. For the same compound, the “body temperature nadir (hypothermic effect)” value in the series with male Sprague-Dawley rats [6] (10 mg/kg IN, sustained throughout the sampling period (80 min)) was 34.4 °C; in the series with male Sprague-Dawley rats [6] (10 mg/kg SC, subsided by end of sampling period (160 min)) it was 34.2 °C. The “body temperature vs saline controls” value in the series with male Sprague-Dawley rats [6] (IN, all doses, by 20 min post-treatment) was “significantly reduced temperature”. Further, the “wet dog shakes vs vehicle” value in the series with male Sprague-Dawley rats [7] is on record as “increased compared to vehicle”.

In the case of `COc1cc(CC(C)N)c(OC)cc1I` (centres unmarked) [DOI, 1-(4-iodo-2,5-dimethoxyphenyl)propan-2-amine], the wet dog shakes result with rats [1] is “more than ten episodes per hour”.

Regarding `CN(C)CCc1c[nH]c2cccc(O)c12` [psilocin, 4-hydroxy-N, N-dimethyltryptamine], in the series with male and female rats, the flat body posture entry is given as “causes flat body posture”.
